The values below come from patent US20160031905A1, “Macrocyclic LRRK2 Kinase Inhibitors” (IPSEN PHARMA S.A.S., priority 2013, published 2016).

Data set [1] deals with T1, LRRK2 recombinant protein (Homo sapiens, UniProt Q5S007).
T1 construct: purchased Invitrogen Corporation
As to the kind of experiment: Radiometric protein kinase assay (33PanQinase Activity Assay), in vitro peptide-based kinase assay. It is filed as biochemical. Particulars: protein kinase LRRK2 7.3 nM, ATP 0.3 μM, substrate GSK3(14-27), 30° C. for 60 minutes. As to the method:
The inhibition of LRRK2 kinase was assessed using LRRK2 recombinant protein in an in vitro peptide-based kinase assay.
A radiometric protein kinase assay (^33PanQinase® Activity Assay) is used for measuring the kinase activity. All assays are performed in 96-well FlashPlates™ from Perkin Elmer in a 50 μl reaction volume. The reaction cocktail is […] in 4 steps in the following order: • 10 μl of non-radioactive ATP solution (in H2O) • 25 μl of assay buffer/[γ-^33P]-ATP mixture • 5 μl of test sample in 10% DMSO • 10 μl of enzyme/substrate mixture
The assay for LRRK2 contains 70 mM HEPES-NaOH pH 7.5, 3 mM MgCl2, 3 mM MnCl2, 3 μM Na-orthovanadate, 1.2 mM DTT, 50 μg/ml PEG20000, ATP (0.3 μM), [γ-^33P]-ATP (approx. […] per well), protein kinase LRRK2 (7.3 nM) and substrate (GSK3(14-27), 1.0 μg/50 μl). The kinase is obtained from Invitrogen Corporation.
The reaction cocktails were incubated at 30° C. for 60 minutes. The reaction was stopped with 50 μl of 2% (v/v) H3PO4, plates were aspirated and washed two times with 200 μl 0.9% (w/v) NaCl. Incorporation of ^33Pi (counting of “cpm”) was determined with a microplate scintillation counter.
The compounds are dissolved to 10 mM in DMSO. Where needed, solutions are sonicated in a bath sonicator.

Structures can show the parent of a compound that is named as a salt. Bounds are passed on as bounds.

The term IC50 denotes the midpoint of a concentration-inhibition curve. As usually defined, the melting point is the temperature, or range, at which the solid turns liquid.

T1 sequence (Q5S007 whole entry): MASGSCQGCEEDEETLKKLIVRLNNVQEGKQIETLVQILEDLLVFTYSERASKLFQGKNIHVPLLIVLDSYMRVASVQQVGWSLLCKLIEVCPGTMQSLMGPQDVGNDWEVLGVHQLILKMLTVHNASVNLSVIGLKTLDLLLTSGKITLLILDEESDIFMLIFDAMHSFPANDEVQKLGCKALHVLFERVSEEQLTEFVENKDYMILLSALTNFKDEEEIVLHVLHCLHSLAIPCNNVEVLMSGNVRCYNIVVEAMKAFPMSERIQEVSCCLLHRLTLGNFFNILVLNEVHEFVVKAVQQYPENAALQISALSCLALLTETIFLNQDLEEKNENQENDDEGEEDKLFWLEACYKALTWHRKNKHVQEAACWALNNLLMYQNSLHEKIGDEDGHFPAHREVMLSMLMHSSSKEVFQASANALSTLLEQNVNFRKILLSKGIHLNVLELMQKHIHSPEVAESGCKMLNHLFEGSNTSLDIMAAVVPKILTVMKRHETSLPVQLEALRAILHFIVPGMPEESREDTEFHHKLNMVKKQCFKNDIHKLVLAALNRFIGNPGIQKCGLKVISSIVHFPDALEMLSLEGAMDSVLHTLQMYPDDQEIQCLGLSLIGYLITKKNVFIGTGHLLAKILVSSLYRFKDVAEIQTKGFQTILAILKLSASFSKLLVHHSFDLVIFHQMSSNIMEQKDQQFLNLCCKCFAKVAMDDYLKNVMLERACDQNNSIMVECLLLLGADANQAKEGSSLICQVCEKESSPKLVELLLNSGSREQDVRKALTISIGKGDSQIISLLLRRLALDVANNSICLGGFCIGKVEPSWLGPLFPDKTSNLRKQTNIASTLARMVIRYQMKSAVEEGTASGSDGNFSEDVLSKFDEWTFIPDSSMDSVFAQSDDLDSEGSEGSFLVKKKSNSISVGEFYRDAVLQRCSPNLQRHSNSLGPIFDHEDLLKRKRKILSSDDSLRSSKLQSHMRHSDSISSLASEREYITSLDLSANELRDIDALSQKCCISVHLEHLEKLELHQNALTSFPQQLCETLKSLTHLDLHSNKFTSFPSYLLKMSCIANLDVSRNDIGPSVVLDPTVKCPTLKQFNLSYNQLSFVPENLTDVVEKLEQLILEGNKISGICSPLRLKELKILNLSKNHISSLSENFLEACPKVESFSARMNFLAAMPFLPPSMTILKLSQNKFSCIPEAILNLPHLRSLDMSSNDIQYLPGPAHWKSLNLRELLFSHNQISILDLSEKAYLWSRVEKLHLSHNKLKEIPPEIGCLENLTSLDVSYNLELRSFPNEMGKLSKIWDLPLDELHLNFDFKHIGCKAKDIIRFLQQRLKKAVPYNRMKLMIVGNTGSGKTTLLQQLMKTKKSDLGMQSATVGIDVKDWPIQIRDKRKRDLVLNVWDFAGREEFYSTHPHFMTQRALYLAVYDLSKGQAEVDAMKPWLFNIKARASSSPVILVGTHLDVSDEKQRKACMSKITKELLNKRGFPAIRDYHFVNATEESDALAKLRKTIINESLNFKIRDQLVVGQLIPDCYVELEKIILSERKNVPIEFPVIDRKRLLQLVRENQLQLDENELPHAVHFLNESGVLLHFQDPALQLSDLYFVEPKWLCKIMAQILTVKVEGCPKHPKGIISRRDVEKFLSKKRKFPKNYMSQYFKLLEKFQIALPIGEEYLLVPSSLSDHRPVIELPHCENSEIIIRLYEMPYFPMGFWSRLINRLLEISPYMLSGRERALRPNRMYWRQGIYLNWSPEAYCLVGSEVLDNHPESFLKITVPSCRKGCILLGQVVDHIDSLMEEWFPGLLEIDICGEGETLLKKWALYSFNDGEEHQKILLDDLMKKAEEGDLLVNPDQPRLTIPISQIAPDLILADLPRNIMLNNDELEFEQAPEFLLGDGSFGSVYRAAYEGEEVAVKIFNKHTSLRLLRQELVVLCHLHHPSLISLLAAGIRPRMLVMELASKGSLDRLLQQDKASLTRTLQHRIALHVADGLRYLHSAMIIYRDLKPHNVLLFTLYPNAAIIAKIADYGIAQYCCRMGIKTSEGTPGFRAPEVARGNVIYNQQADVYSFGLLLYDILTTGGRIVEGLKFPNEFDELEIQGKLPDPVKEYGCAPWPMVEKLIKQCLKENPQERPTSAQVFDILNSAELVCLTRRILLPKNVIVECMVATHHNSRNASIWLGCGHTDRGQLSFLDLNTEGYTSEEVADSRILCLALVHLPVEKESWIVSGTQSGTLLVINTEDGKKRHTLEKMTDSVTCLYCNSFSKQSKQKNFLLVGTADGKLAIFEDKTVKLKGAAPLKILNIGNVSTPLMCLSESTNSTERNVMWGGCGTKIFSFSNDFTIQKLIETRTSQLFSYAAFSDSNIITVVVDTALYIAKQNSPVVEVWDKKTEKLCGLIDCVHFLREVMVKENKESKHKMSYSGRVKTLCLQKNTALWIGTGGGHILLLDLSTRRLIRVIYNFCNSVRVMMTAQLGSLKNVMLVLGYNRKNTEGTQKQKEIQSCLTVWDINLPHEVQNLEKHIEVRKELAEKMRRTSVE

Take `CN1CCNCCOc2cccc(c2)-c2cnn3ccc1nc23` [Compound G2]: the melting point was over 300 °C. Also, the IC50 in data set [1] was under 100 nM. The molecule `CN1CCCNc2ccc(F)c(c2)-c2cnc3ccc(nn23)N(C)CC1` [Compound G48] had a melting point of 289.4 °C. In addition, in data set [1], the IC50 was 100 to 1000 nM.

`c1cc2cc(c1)-c1cnc3ccc(nn13)NCCNCCCO2` [Compound G32] displayed a melting point of over 300 °C. Moreover, the IC50 in data set [1] is under 100 nM. As to `c1cc2cc(c1)-c1cnn3ccc(nc13)NCCNCCCN2` [Compound D3], the melting point was over 300 °C. Besides, the IC50 in data set [1] is under 100 nM. Take `CN1CCNCCCOc2ccc(F)c(c2)-c2cnc3ccc1nn23` [Compound G34]: the melting point is over 300 °C. For the same molecule, the 50% inhibitory concentration (IC50) in data set [1] is under 100 nM.

As for `c1cc2cc(c1)-c1cnn3ccc(nc13)NCCCNCCCN2` [Compound G1], the IC50 in data set [1] is under 100 nM. The same measure, in the same setting: as for `c1cc2cc(c1)-c1cnn3ccc(nc13)OCCCNCCN2` [Compound G3], the figure is under 100 nM; as for `Fc1ccc2cc1-c1cnc3ccc(nn13)NCCCNCCO2` [Compound G15], under 100 nM.

The molecule `c1cc2cc(c1)-c1cnn3ccc(nc13)NCCCCNCCCO2` [Compound D5] yielded a melting point of 146.9 °C. Further, in data set [1], the IC50 was under 100 nM. Turning to `Fc1ccc2cc1-c1cnn3ccc(nc13)NCCNCCO2` [Compound C1], in data set [1], the IC50 is under 100 nM. `c1cc2cc(c1)-c1cnn3ccc(nc13)NCCCNCCCN2` (as salt: HCl) [Compound G1]: the melting point stood at 280 °C. Turning to `Clc1ccc2cc1-c1cnn3ccc(nc13)NCCCNCCO2` [Compound G27], the melting point was over 300 °C. In data set [1], the IC50 was under 100 nM. As for `c1cc2cc(c1)-c1cnn3ccc(nc13)OCCCNCCN2` (as salt: HCl) [Compound G3], the melting point turned out to be 280 °C. Turning to `CC1COc2cccc(c2)-c2cnn3ccc(nc23)NCCCN1` (stereo not drawn) [Compound G31], in data set [1], the IC50 is under 100 nM.

Turning to `c1cc2cc(c1)-c1cnn3ccc(nc13)NCCNCCN2` [Compound D1], the melting point is over 300 °C. For the same molecule, in data set [1], the IC50 is under 100 nM. `CC1CNCCCNc2ccn3ncc(c3n2)-c2cccc(c2)O1` (stereo not drawn) [Compound G23]: the melting point was over 300 °C. For the same molecule, the IC50 in data set [1] was under 100 nM.

Consider `Fc1ccc2cc1-c1cnn3ccc(nc13)NCCCCNCCN2` [Compound G46], for which the melting point is 270.4 °C. For the same molecule, in data set [1], the IC50 is under 100 nM. As to `CN1CCCNCCOc2ccc(F)c(c2)-c2cnc3ccc1nn23` [Compound G24], the melting point was over 300 °C. Further, the IC50 in data set [1] is under 100 nM.

As for `CN1CCNCCCOc2cccc(c2)-c2cnn3ccc1nc23` [Compound G22], the melting point was 286.4 °C. For the same molecule, in data set [1], the IC50 is under 100 nM. Take `CN1CCCNc2ccn3ncc(c3n2)-c2cc(ccc2F)OCC1` [Compound G18]: the IC50 in data set [1] was under 100 nM. As to `c1cc2cc(c1)-c1cnn3ccc(nc13)NCCCNCCN2` [Compound D4], the melting point was found to be 296.8 °C. The IC50 in data set [1] was under 100 nM. Take `CN1CCCNc2ccn3ncc(c3n2)-c2cccc(c2)OCC1` [Compound G20]: in data set [1], the IC50 was under 100 nM. In the case of `Fc1ccc2cc1-c1cnn3ccc(nc13)NCCCCNCCO2` [Compound G40], the melting point was over 300 °C. Also, in data set [1], the IC50 was under 100 nM. As to `CN1CCCNCCOc2ccc(F)c(c2)-c2cnn3ccc1nc23` (as salt: HCl) [Compound G16], the melting point was over 300 °C. Molecule `c1cc2cc(c1)-c1cnn3ccc(nc13)NCCCCNCCO2` [Compound G14] yielded a melting point of over 300 °C. Further, the IC50 in data set [1] was under 100 nM. In the same order, the values of `CN1CCCNCCNc2ccc(F)c(c2)-c2cnn3ccc1nc23` [Compound G35] are 284.8 °C and under 100 nM. As to `Fc1ccc2cc1OCCNCCNc1ccn3ncc-2c3n1` [Compound C2], the melting point was over 300 °C. Further, the IC50 in data set [1] was under 100 nM. `CN1CCCOc2ccc(F)c(c2)-c2cnn3ccc(nc23)NCC1` [Compound G25] returned a melting point of 168.8 °C. For the same molecule, the IC50 in data set [1] fell in the range of 100 to 1000 nM.

In turn, `CC1CNCCNc2ccn3ncc(c3n2)-c2cccc(c2)O1` (racemic) [Compound G5] showed a melting point of 215 °C. Besides, in data set [1], the IC50 was under 100 nM. As for `Fc1ccc2cc1-c1cnc3ccc(nn13)NCCCNCCN2` [Compound G43], the melting point is over 300 °C. Moreover, in data set [1], the IC50 was under 100 nM. As to `Clc1ccc2cc1-c1cnn3ccc(nc13)NCCNCCCO2` [Compound G30], the melting point was over 300 °C. In data set [1], the concentration for half-maximal inhibition (IC50) is 100 to 1000 nM. Taken in the same sequence, the figures for `CN1CCNCCCNc2ccc(F)c(c2)-c2cnn3ccc1nc23` [Compound G39] were over 300 °C and under 100 nM.

Take `CC1CNCCCNc2ccn3ncc(c3n2)-c2cc(ccc2F)O1` (stereo not drawn) [Compound G28]: the melting point was over 300 °C. In data set [1], the IC50 was under 100 nM. As to `c1cc2cc(c1)-c1cnn3ccc(nc13)NCCCNCCO2` [Compound A33], the melting point is over 300 °C. The IC50 in data set [1] was under 100 nM. `Fc1ccc2cc1-c1cnn3ccc(nc13)OCCCNCCN2` [Compound G19] registered a melting point of 279.1 °C. Also, the IC50 in data set [1] was under 100 nM. Regarding `Fc1ccc2cc1-c1cnn3ccc(nc13)NCCCOCCN2` [Compound G49], the IC50 in data set [1] is under 100 nM. `CN1CCCNCCOc2cccc(c2)-c2cnn3ccc1nc23` [Compound G17] came in with a melting point of 297.5 °C. Also, the IC50 in data set [1] is under 100 nM. `CN1CCCOc2ccc3ncc(n3n2)-c2cc(ccc2F)NCC1` [Compound G44] registered a melting point of 242.3 °C. Besides, in data set [1], the IC50 was under 100 nM. The molecule `c1cc2cc(c1)-c1cnc3ccc(nn13)NCCCNCCO2` [Compound G4] displayed a melting point of over 300 °C. For the same molecule, the IC50 in data set [1] is under 100 nM. As for `Fc1ccc2cc1-c1cnn3ccc(nc13)NCCCNCCO2` [Compound G6], the melting point came to 197.6 °C. The IC50 in data set [1] is under 100 nM. In turn, `CN1CCCNc2ccc(F)c(c2)-c2cnc3ccc(nn23)NCC1` [Compound G45] gave a melting point of 289.1 °C. Besides, in data set [1], the IC50 is under 100 nM. In the case of `Fc1ccc2cc1-c1cnn3ccc(nc13)NCCNCCCN2` [Compound G21], the melting point was over 300 °C. Besides, the IC50 in data set [1] was under 100 nM. For the molecule `Fc1ccc2cc1-c1cnn3ccc(nc13)NCCNCCO2` (as salt: hydrochloride) [Compound C1], the melting point is over 300 °C. Consider `Fc1ccc2cc1-c1cnc3ccc(nn13)NCCNCCCO2` [Compound G33], for which the melting point was over 300 °C. For the same molecule, the IC50 in data set [1] was under 100 nM.

For `Fc1ccc2cc1-c1cnn3ccc(nc13)NCCCNCCN2` [Compound G12], the melting point is over 300 °C. Moreover, the IC50 in data set [1] was under 100 nM. Taken in the same sequence, the figures for `Fc1ccc2cc1-c1cnc3ccc(nn13)OCCCNCCN2` [Compound G36] were over 300 °C and under 100 nM. In the case of `Fc1ccc2cc1-c1cnc3ccc(nn13)NCCNCCCN2` [Compound G37], the melting point was over 300 °C. Besides, in data set [1], the IC50 is under 100 nM. Consider `CN1CCCNCCOc2ccc(F)c(c2)-c2cnn3ccc1nc23` [Compound G16], for which, in data set [1], the IC50 was under 100 nM.

Molecule `CC1COc2cccc(c2)-c2cnn3ccc(nc23)NCCN1` (stereo not drawn) [Compound G11] registered a melting point of 245.9 °C. For the same molecule, the IC50 in data set [1] is under 100 nM. For the molecule `Cc1ccc2cc1-c1cnn3ccc(nc13)NCCCNCCO2` [Compound G42], the melting point came to 296.8 °C. Also, the IC50 in data set [1] was in the range of 100 to 1000 nM. `CN1CCNCCCOc2ccc(F)c(c2)-c2cnn3ccc1nc23` [Compound G26] displayed a melting point of over 300 °C. The IC50 in data set [1] is under 100 nM.

As to `CN1CCCNCCNc2ccc(F)c(c2)-c2cnc3ccc1nn23` [Compound G50], the IC50 in data set [1] is under 100 nM. Turning to `CN1CCNCCCNc2ccc(F)c(c2)-c2cnc3ccc1nn23` [Compound G41], the melting point amounted to 263.8 °C. The 50% inhibitory concentration (IC50) in data set [1] was under 100 nM. `Fc1ccc2cc1-c1cnn3ccc(nc13)NCCNCCN2` [Compound G7] registered a melting point of over 300 °C. In addition, the IC50 in data set [1] was under 100 nM.

For the molecule `CN1CCCNc2ccn3ncc(c3n2)-c2cc(ccc2F)OCC1` (as salt: HCl) [Compound G18], the melting point is over 300 °C. `c1cc2cc(c1)-c1cnn3ccc(nc13)OCCNCCCN2` [Compound G8] returned a melting point of 276.7 °C. In addition, the IC50 in data set [1] is under 100 nM. Taken in the same sequence, the figures for `N#CCN1CCCNc2ccc(F)c(c2)-c2cnn3ccc(nc23)NCC1` [Compound G47] were 262.6 °C and under 100 nM.
